Experimental data from publication PMC8949103 (Viruses, 2022).

Assays:
[1] = molecular target: T1, PDCoV M^pro (Porcine deltacoronavirus, UniProt A0A140ESF0); assay: fluorogenic peptide cleavage assay, progress-curve inactivation; assay type: biochemical; conditions: covalent; Michael acceptor N3 derivative; assay similar to N3
[2] = molecular target: T1, PDCoV M^pro; assay: as above; assay type: biochemical; conditions: covalent; irreversible, Cys-144, active site; substrate MCA-AVLQSGFR-Lys(Dnp)-Lys-NH2 50 µM; enzyme 2 µM; pH 7.3, 30 °C
[3] = molecular target: Porcine deltacoronavirus (PDCoV) main protease (M^pro) (Porcine deltacoronavirus (PDCoV)); assay: crystal structure

Question: How did the KI (inactivation) [1] turn out when Cc1cc(C(=O)N[C@@H](C)C(=O)N[C@H](C(=O)N[C@@H](CC(C)C)C(=O)N[C@H](/C=C/C(=O)OC(C)C)C[C@@H]2CCNC2=O)C(C)C)no1 [M14] was run?
Answer: 7.56 ± 0.26 µM

Question: Which KI (inactivation) [1] does the source give for COc1ccc(COC(=O)/C=C/[C@H](C[C@@H]2CCNC2=O)NC(=O)[C@H](CC(C)C)NC(=O)[C@@H](NC(=O)[C@H](C)NC(=O)c2cc(C)on2)C(C)C)cc1 [M25] here?
Answer: 8.8 ± 0.15 µM

Question: How did the KI (inactivation) [2] turn out when Cc1cc(C(=O)N[C@@H](C)C(=O)N[C@H](C(=O)N[C@@H](CC(C)C)C(=O)N[C@H](/C=C/C(=O)OCc2ccccc2)C[C@@H]2CCNC2=O)C(C)C)no1 [N3] was run?
Answer: 12 ± 0.13 µM

Question: “Porcine deltacoronavirus (PDCoV) main protease (M^pro) (enzyme)” was tested. Which stoichiometry N [3] did it give?
Answer: 2
